Results taken from US11439147B2, “3-pyridyl oxyaniline compound and use of same” (Sumitomo Chemical Company, Limited, priority 2016, dated 2022).

Tests used:
Format in all cases: in vivo
[1] = test system: Amaranthus retroflexus; assay: Post-emergence treatment test in a farmland (pot, foliar spray); conditions: application rate 4 kg/ha; two-leaf stage, sprayed; nine days after spraying; visual, 11 stages 0 (no effect) to 10 (complete kill)
Description: Test Example 1: Post-emergence treatment test in a farmland
Nursery soil was put in a plastic pot measuring 8 cm in diameter and 6.5 cm in height, and in the pot, seeds of Amaranthus retroflexus were sown, and then covered with soil of about 0.5 cm thickness, and the plants were grown in a greenhouse. When the Amaranthus retroflexus plants were grown to two-leaf stage, a diluted solution containing any one of the present compound, the compound A, or the compound B was uniformly sprayed on the whole Amaranthus retroflexus plants so that the application rates of the chemicals would be values indicated in Table 1.
Here the diluted solution was prepared by dissolving the present compound, the compound A, or the compound B in dimethylformamide solution containing 2% of Tween 20 (polyoxyethylene sorbitan fatty acid ester) (manufactured by MP Biomedicals Inc.) and then diluting the solution with deionized water.
The Amaranthus retroflexus plants that were sprayed with the diluted solution containing the present compound, the compound A, or the compound B were grown in a greenhouse. Nine clays after spraying, the efficacy for controlling Amaranthus retroflexus plants was observed, thereby examining a herbicidal effect. Here the herbicidal effect was visually observed and evaluated by classifying the effect into 11 stages from 0 (no effect) to 10 (complete kill).

[2] = test system: Echinochloa oryzicola; assay: Herbicidal effect, pot test in greenhouse (paddy water treatment); conditions: twelve days after treatment, visual index 0 (no effect) to 100 (complete kill)
Text: (§1) Herbicidal effect against Echinochloa oryzicola and Lindernia procumbens (Pot test in greenhouse) Soil was put in a plastic pot (φ 5 cm×5.5 cm), and soil was puddled, and the plastic pot was allowed to stand for 2 days, Lindernia procumbens seeds were mixed with soil, and sown to the surface of puddled soil in the pot. On the same day, the sprouted seeds of Echinochloa oryzicola were sown into about 0.5 cm depth from the soil surface of the pot, and the submerged depth was adjusted to about 2 cm. Treatment solutions containing the present, compound, the compound A, or the compound B were prepared by dissolving the present compound, the compound A, or the compound B in acetone, followed by diluting the resulting solutions with distilled water. On the same day as the sowing of Echinochloa oryzicola and Lindernia procumbens, the treatment solution containing the present compound, the compound A, or the compound B was poured into paddy water in the pot so that the application rates of the chemicals would be values indicated in Table 2. Twelve days after the treatment, the herbicidal effect on weeds was visually observed by classifying the effect into 0 to 100 indices (0 (no effect) to 100 (complete kill)).

[3] = test system: Lindernia procumbens; assay: as above; conditions: twelve days after treatment, visual index 0 (no effect) to 100 (complete kill)
Text: as §1

[4] = test system: Echinochloa oryzicola; assay: Hydroponic test of Echinochloa oryzicola; conditions: ten days, visual index 0 (no effect) to 100 (complete kill)
Description: Test Example 3: Hydroponic Test of Echinochloa oryzicola
Two (2) mL of distilled water was poured into a plastic tube (2.5 cm in inside diameter×10 cm in height). To the distilled water was added a solution in which the present compound or the compound A was dissolved in dimethyl sulfoxide to prepare the treatment solutions so that, the treatment concentration thereof would be values indicated in table 3. Next, four grains of sprouted Echinochloa oryzicola seeds were put in each treatment solution. The tubes were covered with parafilm, and the seeds were grown under the condition that a cultivation at 25° C. under lightning for 16 hours and a successive cultivation at 25° C. under dark for 8 hours were repeated. Ten days after the addition of the Echinochloa oryzicola seeds, the herbicidal effect on Echinochloa oryzicola was visually observed by classifying the effect into 0 to 100 indices (0 (no effect) to 100 (complete kill)).

[5] = test system: Arabidopsis thaliana; assay: Inhibitory activity on emergence of Arabidopsis thaliana; conditions: ten days after sowing, visual index 0: no effect to 100: no emergence
Description: Test Example 4: Inhibitory Activity on Emergence of Arabiclopsis thaliana Each well of 24 well microtiter plates was matted with a filter paper, and to the filter paper was added 150 μL of distilled water. To the distilled water was added a solution in which the present compound, the compound A, or the compound B was dissolved in dimethyl sulfoxide so that the concentration of each of the chemicals would be values indicated in Table 4. Next, seeds of Arabidopsis thaliana were sown into each well and grown under the condition that a cultivation at 25° C. under lighting for 16 hours and a successive cultivation at 25° C. under dark for 8 hours were repeated. Ten days after sowing, the inhibitory activity on emergence of Arabidopsis thaliana was visually evaluated by classifying the activity into 0 to 100 indices (0: no effect to 100: no emergence).

[6] = application rate 50 g/a into paddy water
[7] = application rate 100 g/a into paddy water
[8] = treatment concentration 125 ppm
[9] = treatment concentration 250 ppm
[10] = treatment concentration 500 ppm
[11] = treatment concentration 1000 ppm

CCOC(=O)COc1ncccc1Oc1cc(NC(=O)C=C(Nc2cc(Oc3cccnc3OCC(=O)OCC)c(Cl)cc2F)C(F)(F)F)c(F)cc1Cl [Present compound]
Herbicidal Effect [1]: 8 | Herbicidal Effect Echinochloa oryzicola [2, 6]: 100 | Herbicidal Effect Echinochloa oryzicola [2, 7]: 100 | Herbicidal Effect Lindernia procumbens [3, 6]: 50 | Herbicidal Effect Lindernia procumbens [3, 7]: 60 | Herbicidal Effect [4, 8]: 100 | Herbicidal Effect [4, 9]: 100 | Herbicidal Effect [4, 10]: 100 | Inhibitory Activity on Emergence [5, 10]: 100 | Inhibitory Activity on Emergence [5, 11]: 100

CCOC(=O)COc1ncccc1Oc1cc(N)c(F)cc1Cl [Compound A, 4-chloro-2-fluoro-5-{2-(ethoxycarbonyl)methoxy-3-pyridyloxy}aniline]
Herbicidal Effect [1]: 1 | Herbicidal Effect Echinochloa oryzicola [2, 6]: 0 | Herbicidal Effect Echinochloa oryzicola [2, 7]: 10 | Herbicidal Effect Lindernia procumbens [3, 6]: 0 | Herbicidal Effect Lindernia procumbens [3, 7]: 0 | Herbicidal Effect [4, 8]: 0 | Herbicidal Effect [4, 9]: 0 | Herbicidal Effect [4, 10]: 0 | Inhibitory Activity on Emergence [5, 10]: 0 | Inhibitory Activity on Emergence [5, 11]: 0

CCOC(=O)COc1ncccc1Oc1cc(NC(=O)CC(=O)C(F)(F)F)c(F)cc1Cl [Compound B]
Herbicidal Effect [1]: 3 | Herbicidal Effect Echinochloa oryzicola [2, 6]: 0 | Herbicidal Effect Echinochloa oryzicola [2, 7]: 0 | Herbicidal Effect Lindernia procumbens [3, 6]: 0 | Herbicidal Effect Lindernia procumbens [3, 7]: 0 | Inhibitory Activity on Emergence [5, 10]: 0 | Inhibitory Activity on Emergence [5, 11]: 0
